Data reported in patent US20240335443A1, “IMIDAZOLOPYRIDAZINE OR PYRAZOLOPYRIMIDINE COMPOUNDS AND COMPOSITIONS” (Anrui Biomedical Technology (Guangzhou) Co., Ltd., priority 2021, published 2024).
Structures can show the parent of a compound that is named as a salt. Where two headings read alike, the source gives them in different places.

Columns and labels:
[1] = system: IL-23 induced STAT3 in HEK-Blue™ IL-23 cells; experiment: IL-23 induced STAT3 QUANTI-Blue reporter assay in HEK-Blue IL-23 cells; assay type: cell-based; settings: IL-23 0.1 ng/mL, SEAP levels, class symbols, read-out: IL23 reporter assay (IC50 nM)
Method in brief: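 HEK-Blue IL-23 cells, 5000/well, preincubated with compound 1 h at 37 °C, then stimulated overnight with IL-23 at 0.1 ng/mL final. Supernatant mixed with QUANTI-Blue for 2 h at 37 °C and secreted SEAP read out.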

[2] = biological target: T1, N-terminal His-tagged TYK2 pseudokinase domain (Homo sapiens, UniProt P29597); experiment: TYK2 JH2 domain SPA binding assay; settings: displacement of H3 probe (20 nM), 30 min room temperature; class symbols
T1 construct: the N-terminal His-tagged TYK2 pseudokinase domain; His (N); purchased Pharmaron
Protocol: TYK2 JH2 Domain Binding Assay
After incubating at room temperature for 30 min, the inhibition was calculated by the displacement of [3H] 3 binding as determined by scintillation counting. Dose-response curves were generated to determine the concentration required to inhibit H3 probe binding by […] (IC50).

[3] = HEK-Blue IL-23, HEK-Blue IL-23 cells

T1 sequence (P29597 589-875 limits assumed): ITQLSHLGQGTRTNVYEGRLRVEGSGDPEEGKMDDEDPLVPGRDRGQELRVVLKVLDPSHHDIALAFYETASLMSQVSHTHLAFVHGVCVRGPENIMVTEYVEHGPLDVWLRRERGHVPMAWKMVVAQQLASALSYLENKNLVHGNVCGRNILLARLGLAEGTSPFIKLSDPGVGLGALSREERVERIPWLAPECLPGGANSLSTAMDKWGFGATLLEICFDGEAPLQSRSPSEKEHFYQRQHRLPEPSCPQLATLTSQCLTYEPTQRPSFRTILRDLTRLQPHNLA

IC50 [2] [nM]	SMILES	IC50 ([1]; HEK-Blue IL-23 cells) [nM]	IC50 [1, 3] [nM]
10 to 100	CNc1cc(Nc2cccn([C@H]3C[C@H](OC)C3)c2=O)nn2c(C(=O)NC3CCC4CCOC43)cnc12 (single isomer, unassigned) [Compound 88a]	< 10	–
10 to 100	[2H]C([2H])([2H])Nc1cc(Nc2cccn(C3CC4(CCCO4)C3)c2=O)nn2c(C(=O)N[C@@H]3C[C@H]4CCO[C@H]43)cnc12 (single isomer, unassigned) [Compound 98b]	10 to 100	–
10 to 100	CNc1cc(Nc2cccn(-c3ccccn3)c2=O)nn2c(C(=O)NC3CCC4CCOC43)cnc12 (racemic) [Compound 10a, N-(hexahydro-2H-cyclopenta[b]furan-6-yl)-8-(methylamino)-6-((2-oxo-2H-[1,2′-bipyridin]-3-yl)amino)imidazo[1,2-b]pyridazine-3-carboxamide]	10 to 100	–
10 to 100	[2H]C([2H])([2H])O[C@H]1CC[C@@H](n2cccc(Nc3cc(NC)c4ncc(C(=O)N[C@@H]5C[C@@H]5F)n4n3)c2=O)CC1 [Compound 15, N-((1R,2S)-2-fluorocyclopropyl)-6-((1-((1s,4s)-4-(methoxy-d3)cyclohexyl)-2-oxo-1,2-dihydropyridin-3-yl)amino)-8-(methylamino)imidazo[1,2-b]pyridazine-3-carboxamide hydrochloride]	–	10 to 100
10 to 100	[2H]C([2H])([2H])Nc1cc(Nc2cccn([C@H]3CC[C@H](OC([2H])([2H])[2H])CC3)c2=O)nn2c(C(=O)N[C@@H]3C[C@@H]3F)cnc12 [Compound 69]	–	< 10
< 10	[2H]C([2H])([2H])Nc1cc(Nc2cccn([C@@H]3C[C@H]4CCO[C@H]43)c2=O)nn2c(C(=O)N[C@@H]3C[C@@H]3F)cnc12 [Compound 106]	–	< 10
10 to 100	[2H]C([2H])([2H])Nc1cc(Nc2cccn(C3C[C@H]4CC[C@@H](C3)O4)c2=O)nn2c(C(=O)N[C@@H]3C[C@@H]3F)cnc12 (stereo partly shown) [Compound 80]	–	10 to 100
10 to 100	CNc1cc(Nc2cccn(-c3ccccc3)c2=O)nn2c(C(=O)N[C@@H]3C[C@H]4CCO[C@H]43)cnc12 [Compound 46]	–	< 10
10 to 100	CNc1cc(Nc2cccn([C@H]3C[C@H](OC)C3)c2=O)nn2c(C(=O)N[C@@H]3C[C@H]4CCO[C@H]43)cnc12 [Compound 82]	–	< 10
10 to 100	[2H]C([2H])([2H])Nc1cc(Nc2cccn(-c3ccn(C)n3)c2=O)nn2c(C(=O)N[C@@H]3C[C@@H]3F)cnc12 [Compound 57]	–	10 to 100
< 10	CNc1cc(Nc2cccn(C3CCC4(CC3)COC4)c2=O)nn2c(C(=O)N[C@@H]3C[C@H]4CCO[C@H]43)cnc12 [Compound 12, N-((1R,5S,7R)-2-oxabicyclo[3.2.0]heptan-7-yl)-8-(methylamino)-6-((2-oxo-1-(2-oxaspiro[3.5]nonan-7-yl)-1,2-dihydropyridin-3-yl)amino)imidazo[1,2-b]pyridazine-3-carboxamide]	–	< 10
100 to 1000	CNc1cc(Nc2cccn(-c3ccn(C)n3)c2=O)nc2c(C(=O)N[C@@H]3C[C@H]4CCO[C@H]43)cnn12 (racemic) [Compound 51]	–	10 to 100
100 to 1000	CNc1cc(Nc2cccn(C3CC4CCOC43)c2=O)nn2c(C(=O)N[C@@H]3C[C@@H]3F)cnc12 (single isomer, unassigned) [Compound 105b]	10 to 100	–
< 10	[2H]C([2H])([2H])Nc1cc(Nc2cccn(-c3ccn(C)n3)c2=O)nn2c(C(=O)N[C@@H]3C[C@H]4CCO[C@H]43)cnc12 [Compound 52]	–	< 10
> 1000	CNc1cc(Nc2cccn([C@@H]3C[C@H]4CCO[C@H]43)c2=O)nn2c(C(=O)NC3CCC4CCOC43)cnc12 (single isomer, unassigned) [Compound 95b]	≥ 1000	–
< 10	CNc1cc(Nc2cccc3c2OCCC3)nn2c(C(=O)NC(C)c3ncco3)cnc12 (single isomer, unassigned) [Compound 22b]	< 10	–
< 10	CNc1cc(Nc2cccc(N3CCCC3=O)n2)nn2c(C(=O)NC3CCn4ccnc43)cnc12 (racemic) [Compound 29]	–	< 10
